US20100028366A1, “SYNERGISTIC EFFECT BETWEEN A […] AND ANOTHER OXIDATIVE INDUCING SYSTEM FOR TREATING TUMORS” (priority 2005, published 2010)

Tests used:
W&Wlis cells [1] = assay: Determination of the extracellular peroxide concentration; assay type: cell-based, canine; conditions: 48 hours; 0.5 mg/ml of linamarin and/or 5 mEU/ml of glucose oxidase; control approximately 20 μM
Experimental: The H2O2 levels (FIG. 3B) produced extracellularly in the combined therapy were further studied in the invention. To do so, the amount of H2O2 present in the culture medium of W&Wlis cells at 48 hours in a treatment with 0.5 mg/ml of linamarin, in the presence of 5 mEU/ml of glucose oxidase or in the combination of both treatments, was analyzed although positive results were also obtained using other concentrations.
The samples to be analyzed were diluted in 1 ml of 0.1 M phosphate buffer pH 7.4. Then 3.7 EU/ml of peroxidase (Sigma-Aldrich, St. Louis, USA) and 0.1 mg/ml of ortho-dianisidine (Sigma-Aldrich, St. Louis, USA) were added. The samples were incubated at room temperature for 30 minutes and absorbances at 436 nm were determined. The H2O2 concentration was obtained by interpolation of the data obtained in a standard line performed with increasing concentrations of H2O2.

W&Wlis cells [2] = assay: Cell viability analysis by MTT; assay type: cell-based, canine
Experimental: The mitochondrial enzymatic activity as indicative of cell viability was determined by means of using tetrazolium salts. In this assay 10^5 cells/test tube (culture test tubes with a flat side and screw-on cap to prevent the exit of HCN; Nunc) or 10^4 cells/well of 24-well plates closed with parafilm were seeded. After 24 hours of incubation fresh culture medium supplemented with the concentrations of linamarin (between 50 and 500 μg/ml) and glucose oxidase (5 mEU/ml) necessary for each experiment was added. In the assays in which it applied, the medium was supplemented with N-acetyl cysteine (10 mM), 1,5-isoquinolinediol (300 μM) or Z-VAD-fmk (100 μM). After the time stipulated in each experiment (between 12 and 96 hours), the culture medium was removed and fresh medium with 200 μg/mL of MTT (3-[4,5-dimethylthiazo-2-yl]-2,5-diphenyl tetrazolium bromide) was added. After 1.5 hours of incubation, the medium was removed and 3 ml (for the test tubes) or 1 ml (for the 24-well plates) of dimethyl sulfoxide was added to dissolve the formazan. After 10 minutes, the absorbance of the samples at 540 nm was determined. MTT is a tetrazolium salt soluble in aqueous medium (yellow) which is transformed by the mitochondrial dehydrogenases in formazan, an insoluble compound in aqueous medium (purple).

W&Wlis cells [3] = assay: Measurement of intracellular ATP; assay type: cell-based, canine; conditions: linamarin (500 μg/ml) and/or glucose oxidase (5 mEU/ml), over time, versus untreated cells
Experimental: The levels of intracellular energy in the form of ATP decrease when a blockage of the mitochondrial electron transport chain occurs since it is the essential source of obtaining energy of the cells. […] This effect is due to the fact that the maximum H2O2 production by glucose oxidase occurs at short times because the cells have the ability of detoxifying the peroxide and due to the fact that glucose oxidase is inactivated over time by the serum proteins.
10^5 W&Wlis cells were seeded in test tubes with a screw-on cap and flat side (Nunc). After 24 hours, the medium was changed, adding linamarin (500 μg/ml) and glucose oxidase (5 mEU/ml) where appropriate. After 4, 8, 12, 24, 48 or 72 hours, the cells were centrifuged and processed following the instructions of the ATP Bioluminescence Assay Kit CLS II, of Roche Applied Science. The luminescence was analyzed with a Monolight 2010 luminometer (Analytical Luminescence Laboratory, San Diego) and expressed in relative light units (RLU).

W&Wlis tumors = assay: Xenotransplant model, W&Wlis tumors in immunodeficient mice; assay type: in vivo; conditions: intratumoral
Experimental: In addition, a dose range for linamarin was evaluated in immunodeficient (nude) mice weighing 20 grams, inoculated with W&W tumor cells which stably expressed linamarase (W&Wlis). When the tumor reached an approximate size of 50 mm^3, the mice were treated with a daily dose of intratumoral linamarin at different concentrations (0.5; 0.35; 0.25 or 0.10 mg lin/g of weight of the animal).
Another approach carried out for the invention was the use of adenoviruses carrying the linamarase gene (adenolis) in W&W cell tumors induced in immunodeficient mice. 10^6 cells were subcutaneously inoculated in both flanks in mice (n=18). Part of the animals (n=8) received W&Wlis cells which already expressed linamarase, while others (n=10) were inoculated with W&W cells and only when the tumor had developed was it locally infected with adenolis. The animals inoculated with W&Wlis were treated daily with 0.25 mg lin and 0.1 EU GO/g in the largest tumor at the beginning of treatment (approximately 50 mm^3) (FIGS. 7G and 7H). The animals showing W&W tumors were treated with infection cycles with 10^9 IU of adenolis, followed by a two-day treatment with 0.25 mg lin and 0.1 EU GO/g (FIGS. 7I and 7J). The progression of the tumors was evaluated every two days.
Immunodeficient (nude strain), athymic mice weighing approximately 20 grams and 2 months old were used. They were inoculated with 1-2×10^6 cells (W&W or W&Wlis) subcutaneously in both flanks of the mice by means of an injection with a volume of 50 μl in complete PBS (supplemented with calcium and magnesium ions) with 0.1% glucose. The size of the tumors (pi π/6×height×width×length) was measured with a calibrator.
A large group of mice (n=8) were inoculated with 1-2×10^6 W&Wlis cells as previously described. When the tumors reached a mean size of 30-50 mm^3, the tumors of one flank were treated daily with 0.25 mg of linamarin and 0.1 EU of glucose oxidase/g of weight of the animal. When the untreated tumors reached a size of about 2000 mm^3 the animals were sacrificed and it was considered the end of treatment. The data was analyzed statistically by Student's t test, considering a level of significance of 5%.

W&Wlis cells [4] = assay: DNA content analysis by flow cytometry, labeling with propidium iodide; assay type: cell-based, canine; set-up: unit not given here; conditions: Without GO

## CC(C)(C#N)O[C@@H]1O[C@H](CO)[C@@H](O)[C@H](O)[C@H]1O [lin, 2-hydroxy-isobutyronitrile-β-D-glucopyranoside]
W&Wlis cells [1]
  extracellular H2O2 concentration in the culture medium: did not cause significant variations
W&Wlis cells [2]; 10 mM N-acetyl cysteine (NAC) in the medium
  effect of NAC addition on death in the cell viability assay by MTT: did not cause any effect
W&Wlis cells [2]; 96 hours, linamarin 200 to 500 μg/ml, without GO
  cell survival by MTT: drastic reduction of the survival
W&Wlis cells [2]; linamarin alone, or combined therapy at 500 μg/ml linamarin with 5 mEU/ml glucose oxidase
  time after which cell viability begins to decrease (MTT): 48 h
W&Wlis cells [3]
  intracellular ATP levels: progressive and rapid depletion of ATP which becomes almost complete after 48 hours
W&Wlis tumors; 0.1 mg lin/g daily, n=4
  therapeutic effect on tumor growth: no therapeutic effect
W&Wlis tumors; 0.25 mg lin/g daily, after the tenth day of treatment, p=0.05, n=6
  therapeutic effect on tumor growth: significant reduction of the growth of the treated tumor
W&Wlis tumors; 0.35 mg lin/g daily, fifth day of treatment
  death of animals: death of three of the four animals
W&Wlis tumors; 0.5 mg lin/g daily, between the fourth and fifth day of treatment
  death of animals: all the animals
W&Wlis cells [4]; 50 μg lin, 48 hours
  DNA content by flow cytometry, labeling with propidium iodide: 1.95
W&Wlis cells [4]; 50 μg lin, 72 hours
  DNA content by flow cytometry, labeling with propidium iodide: 2.77
W&Wlis cells [4]; 200 μg lin, 48 hours
  DNA content by flow cytometry, labeling with propidium iodide: 1.89
W&Wlis cells [4]; 200 μg lin, 72 hours
  DNA content by flow cytometry, labeling with propidium iodide: 3.14
W&Wlis cells [4]; 500 μg lin, 48 hours
  DNA content by flow cytometry, labeling with propidium iodide: 3.21
W&Wlis cells [4]; 500 μg lin, 72 hours
  DNA content by flow cytometry, labeling with propidium iodide: 4.91
